Experimental data as given in patent US20040082550A1, “Tropolone derivative” (priority 2000, published 2004).

System: promyelocyte leukemia cell strain HL-60
Test: Test for induction of cell differentiation in HL-60 cells (NBT reduction ability)
Type: cell-based
Settings: for Ratio of cells for which differentiation was induced by each compound alone (%): calculated from NBT reduction ability; for Ratio of cells for which differentiation was induced by each compound in combination with 1 × 10^−7 M of HX630 (%): in combination with 1×10^−7 M HX630 (retinoid synergist)
Experimental: For each of the compounds of the examples, action for inducing cell differentiation was examined for each alone and in combination with 1×10^−7 M of HX630. According to the methods described in Japanese Patent Unexamined Publication (KOKAI) No. (Sho)61-76440/1986, differentiation of the cells of promyelocyte leukemia cell strain HL-60 into granulocytic series cells was determined based on morphological change and measurement of ability to reduce nitro blue tetrazolium (NBT). The ratios (%) of differentiated cells shown in the following table are those calculated from NBT reduction ability. HX630 is a retinoid synergist that enhances actions of retinoids, and the concentrations of −8, −7 and −6 mean that each compound was added at concentrations of 1×10^−8 M, 1×10^−7 M and 1×10^−6 M, respectively.

[1] = compound concentration -6 (1×10^−6 M)
[2] = compound concentration -7 (1×10^−7 M)
[3] = compound concentration -8 (1×10^−8 M)

SMILES	Ratio of cells for which differentiation was induced by each compound alone (%) (concentration -6 (1×10^−6 M))	Ratio of cells for which differentiation was induced by each compound alone (%) (concentration -7 (1×10^−7 M))	Ratio of cells for which differentiation was induced by each compound alone (%) (concentration -8 (1×10^−8 M))	Ratio of cells for which differentiation was induced by each compound in combination with 1 × 10^−7 M of HX630 (%) [1] [%]	Ratio of cells for which differentiation was induced by each compound in combination with 1 × 10^−7 M of HX630 (%) [2] [%]	Ratio of cells for which differentiation was induced by each compound in combination with 1 × 10^−7 M of HX630 (%) [3] [%]
Cc1cc2c(cc1C(=O)Nc1ccc(O)c(=O)cc1)C(C)(C)CCC2(C)C [Tp84]	26	5	0.7	90	89	15
CC1(C)CCC(C)(C)c2cc(C=CC(=O)Nc3ccc(O)c(=O)cc3)ccc21 [Tp90]	67	0.9	0.7	43	2.1	1.5
CC1(C)CCC(C)(C)c2cc(C=CC(=O)Nc3ccc(Cl)c(=O)cc3)ccc21 [Tp93]	9	0.8	0.6	40	0.8	3.6
CC1(C)CCC(C)(C)c2cc(C=CC=CC(=O)Nc3ccc(O)c(=O)cc3)ccc21 [Tp95]	0.3	0.5	0.5	1.7	0.5	0.8
COc1ccc(C#Cc2ccc3c(c2)C(C)(C)CCC3(C)C)ccc1=O [Tp141]	6.4	3.3	2.2	84	7	4.1
Cc1cc2c(cc1C#Cc1ccc(O)c(=O)cc1)C(C)(C)CCC2(C)C [Tp145]	70	76	73	77	75	82
CC1(C)CCC(C)(C)c2cc(C#Cc3ccc(NN)c(=O)cc3)ccc21 [Tp146]	69	2.2	3.6	83	91	66
CC1(C)CCC(C)(C)c2cc(C#Cc3cccc(=O)cc3)ccc21 [Tp149]	40	4	1.4	40	85	3.5
CC1(C)CCC(C)(C)c2cc(CCc3ccc(O)c(=O)cc3)ccc21 [Tp150]	60	5.4	1.5	50	80	9
CC(C)(C)c1cc(C#Cc2ccc(O)c(=O)cc2)cc(C(C)(C)C)c1 [Tp155]	62.5	24	2.7	78	89	68
CC1(C)CCC(C)(C)c2cc(N=Nc3ccc(O)c(=O)cc3)ccc21 [Tp160]	32	34.4	18.5	90	84	81
CC(C)(C)c1cc(N=Nc2ccc(O)c(=O)cc2)cc(C(C)(C)C)c1 [Tp170]	2.3	0.8	1.1	10	2.3	0.5
CC1(C)CCC(C)(C)c2cc(-c3cccc(-c4ccc(O)c(=O)cc4)c3)ccc21 [Tp190]	0	32	1.6	50	90	77
CC1(C)CCC(C)(C)c2cc(-c3ccc(-c4ccc(O)c(=O)cc4)o3)ccc21 [Tp200]	36	14	2	50	95	77
CC1(C)CCC(C)(C)c2cc(-c3ccc(-c4ccc(O)c(=O)cc4)s3)ccc21 [Tp210]	11	6	0.8	91	91	64
